According to patent US10829501B2 (BRISTOL-MYERS SQUIBB COMPANY, priority 2016, dated 2020):
Structures can show the parent of a compound that is named as a salt. Where two headings read alike, the source gives them in different places.

How the values were obtained:
[1] = tested on: congestive heart failure in Dahl salt-sensitive rats; conditions: cited from earlier work
[2] = tested on: spontaneously hypertensive rat, renal hypertensive rat and deoxycortisone acetate salt hypertensive rat models; conditions: cited from earlier work
neointimal formation = conditions: rats, balloon injury model; cited from earlier work
rat stroke model = conditions: cited from earlier work
[3] = tested on: IL-1 beta-induced coronary stenosis; conditions: long term treatment, porcine model; cited from earlier work
ROCK2 = ROCK2 (Homo sapiens, UniProt O75116); assay: ROCK2 kinase inhibition assay (LABCHIP 3000 Reader, FITC peptide substrate);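 further: rho kinase reaction read by separating phosphorylated from unphosphorylated peptide on chip, with inhibition of kinase activity computed per concentration across a dose-response series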
ROCK2, sequence (O75116 whole entry, species assumed): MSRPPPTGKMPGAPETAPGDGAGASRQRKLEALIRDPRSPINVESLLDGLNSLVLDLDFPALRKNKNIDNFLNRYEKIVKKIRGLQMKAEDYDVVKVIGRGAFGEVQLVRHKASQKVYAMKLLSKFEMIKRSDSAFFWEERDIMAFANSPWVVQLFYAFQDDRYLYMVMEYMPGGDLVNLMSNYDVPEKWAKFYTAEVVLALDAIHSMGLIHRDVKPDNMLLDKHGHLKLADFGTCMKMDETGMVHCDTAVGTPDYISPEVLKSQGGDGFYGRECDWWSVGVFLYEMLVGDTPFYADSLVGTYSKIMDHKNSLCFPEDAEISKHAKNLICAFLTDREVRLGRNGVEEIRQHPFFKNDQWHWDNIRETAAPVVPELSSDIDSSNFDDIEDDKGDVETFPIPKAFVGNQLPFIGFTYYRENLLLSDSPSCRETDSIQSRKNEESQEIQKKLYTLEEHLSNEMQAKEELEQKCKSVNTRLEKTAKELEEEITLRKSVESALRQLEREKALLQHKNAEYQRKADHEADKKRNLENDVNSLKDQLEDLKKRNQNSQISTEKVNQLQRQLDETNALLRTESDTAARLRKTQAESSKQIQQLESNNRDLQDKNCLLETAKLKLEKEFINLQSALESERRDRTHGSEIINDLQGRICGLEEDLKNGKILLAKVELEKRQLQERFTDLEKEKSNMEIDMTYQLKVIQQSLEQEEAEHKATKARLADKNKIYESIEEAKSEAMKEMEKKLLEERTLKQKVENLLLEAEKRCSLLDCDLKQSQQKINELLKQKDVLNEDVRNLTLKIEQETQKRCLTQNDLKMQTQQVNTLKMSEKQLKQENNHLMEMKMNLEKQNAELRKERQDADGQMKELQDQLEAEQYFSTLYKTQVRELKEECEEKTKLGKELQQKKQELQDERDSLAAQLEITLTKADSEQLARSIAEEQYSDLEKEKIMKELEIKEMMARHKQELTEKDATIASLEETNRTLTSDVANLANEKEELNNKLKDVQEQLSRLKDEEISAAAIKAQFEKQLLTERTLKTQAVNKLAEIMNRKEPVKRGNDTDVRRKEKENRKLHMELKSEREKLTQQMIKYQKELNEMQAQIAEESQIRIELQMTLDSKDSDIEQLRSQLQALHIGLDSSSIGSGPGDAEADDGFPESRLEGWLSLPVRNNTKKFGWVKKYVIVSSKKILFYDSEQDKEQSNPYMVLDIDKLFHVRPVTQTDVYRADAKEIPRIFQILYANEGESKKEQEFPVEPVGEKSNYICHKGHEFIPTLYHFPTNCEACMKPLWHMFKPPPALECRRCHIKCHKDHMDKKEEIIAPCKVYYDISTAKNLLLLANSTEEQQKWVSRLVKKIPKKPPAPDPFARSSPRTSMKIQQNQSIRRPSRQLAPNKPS

C[C@@H](N)[C@H]1CC[C@H](C(=O)Nc2ccncc2)CC1 [Example Y-27632]
ventricular hypertrophy, fibrosis and function [1]: improve ventricular hypertrophy, fibrosis and function
blood pressure ([2]; control rats): only a minor effect on blood pressure
blood pressure ([2]; three rat models of hypertension): significantly decrease blood pressure
neointimal formation (neointimal formation): inhibited neointimal formation

O=S(=O)(c1cccc2cnccc12)N1CCCNCC1 [fasudil]
infarct size and neurologic deficit (rat stroke model): reduce both the infarct size and neurologic deficit
coronary constrictive remodeling [3]: promote a regression of coronary constrictive remodeling
coronary stenosis [3]: progressively reduce coronary stenosis

CC(C)n1cc(-c2ccc3c(C(=O)N[C@H]4CC5(C4)C[C@H](Oc4ncccc4C(N)=O)C5)nnn3c2)c(C(F)(F)F)n1 (stereo partly drawn) [Example 366, N-((aR)-6-((3-carbamoylpyridin-2-yl)oxy)spiro[3.3]heptan-2-yl)-6-(1-isopropyl-3-(trifluoromethyl)-1H-pyrazol-4-yl)-[1,2,3]triazolo[1,5-a]pyridine-3-carboxamide]
IC50 (ROCK2): 5 to 50 nM

CC(C)(O)COc1ccc2c(C(=O)NC3CC4(C3)CC(Oc3cc(-c5cccc(S(N)(=O)=O)c5)ccc3C(N)=O)C4)cnn2c1 (stereo not shown) [Example 298, N-(6-((4-carbamoyl-3′-sulfamoyl-[1,1′-biphenyl]-3-yl)oxy)spiro[3.3]heptan-2-yl)-6-(2-hydroxy-2-methylpropoxy)pyrazolo[1,5-a]pyridine-3-carboxamide]
IC50 (ROCK2): < 5 nM

N-((aR)- 6-((3- carbamoylpyridin- 2- yl)oxy)spiro[3.3] heptan-2-yl)- 2-(3,3-difluoroazetidin- 1-yl)- 4-methylthiazole- 5- carboxamide, trifluoroacetate [Example 90]
IC50 (ROCK2; read-out: ROCK2 Activity (ROCK2 IC50), 5 μM ATP, 1.5 μM peptide substrate, pH 7.5): 50 to 250 nM

CC(C)(O)COc1ccn2c(C(=O)NC3CC4(C3)CC(Oc3ncccc3C(N)=O)C4)cnc2c1 (stereo not shown) [Example 166, N-((αR)-6-((3-carbamoylpyridin-2-yl)oxy)spiro[3.3]heptan-2-yl)-7-(2-hydroxy-2-methylpropoxy) imidazo[1,2-a]pyridine-3-carboxamide]
IC50 (ROCK2): 5 to 50 nM

CC(C)(O)COc1ccc2c(C(=O)NC3CC4(C3)CC(Oc3ncncc3C(N)=O)C4)cnn2c1 (stereo not shown) [Example 8, N-(6-((5-carbamoylpyrimidin-4-yl)oxy)spiro[3.3]heptan-2-yl)-6-(2-hydroxy-2-methylpropoxy)pyrazolo[1,5-a]pyridine-3-carboxamide]
IC50 (ROCK2): 50 to 250 nM

COc1ccc(CCc2ccccc2C(=O)N[C@H]2CC3(C2)C[C@H](Oc2ncccc2C(N)=O)C3)cc1 (stereo partly drawn) [Example 143, 2-(((aR)-6-(2-(4-methoxyphenethyl)benzamido)spiro[3.3]heptan-2-yl)oxy)nicotinamide, trifluoroacetate]
IC50 (ROCK2): 250 to 2500 nM

NC(=O)c1cccnc1O[C@H]1CC2(C[C@H](NC(=O)c3cnn4cc(OCC5(O)CC(F)(F)C5)ccc34)C2)C1 (stereo partly drawn) [Example 413, N-((aR)-6-((3-carbamoylpyridin-2-yl)oxy)spiro[3.3]heptan-2-yl)-6-((3,3-difluoro-1-hydroxycyclobutyl)methoxy)pyrazolo[1,5-a]pyridine-3-carboxamide, TFA]
IC50 (ROCK2): 5 to 50 nM

NC(=O)c1ccccc1O[C@H]1CC2(C[C@H](NC(=O)c3cnc4cc(N5CCC(F)(F)C5)ccn34)C2)C1 (stereo partly drawn) [Example 25, N-[(aR)-6-(2-carbamoylphenoxy)spiro[3.3]heptan-2-yl)-7-(3,3-difluoropyrrolidin-1-yl)imidazo[1,2-a]pyridine-3-carboxamide]
IC50 (ROCK2): < 5 nM

Cc1c(OCC(C)(C)O)ccc2c(C(=O)N[C@H]3CC4(C3)C[C@H](Oc3ncccc3C(N)=O)C4)cnn12 (stereo partly drawn) [Example 321, N-((aR)-6-((3-carbamoylpyridin-2-yl)oxy)spiro[3.3]heptan-2-yl)-6-(2-hydroxy-2-methylpropoxy)-7-methylpyrazolo[1,5-a]pyridine-3-carboxamide]
IC50 (ROCK2): 5 to 50 nM

CC(C)(O)COc1ccc2c(C(=O)NC3CC4(C3)CC(Oc3cc(CCCN5CCOCC5)ccc3C(N)=O)C4)cnn2c1C1CC1 (stereo not shown) [Example 265, N-(6-(2-carbamoyl-5-(3-morpholinopropyl)phenoxy)spiro[3.3]heptan-2-yl)-7-cyclopropyl-6-(2-hydroxy-2-methylpropoxy)pyrazolo[1,5-a]pyridine-3-carboxamide]
IC50 (ROCK2): 5 to 50 nM

CC(C)(O)COc1ccc2c(C(=O)NC3CC4(C3)CC(Oc3cc(-c5ccc(C(C)(C)O)nc5)ccc3C(N)=O)C4)cnn2c1 (stereo not shown) [Example 234, N-(6-(2-carbamoyl-5-(6-(2-hydroxypropan-2-yl)pyridin-3-yl)phenoxy)spiro[3.3]heptan-2-yl)-6-(2-hydroxy-2-methylpropoxy)pyrazolo[1,5-a]pyridine-3-carboxamide]
IC50 (ROCK2): 50 to 250 nM

C[C@H](O)COc1ccc2c(C(=O)N[C@H]3CC4(C3)C[C@H](Oc3ncccc3C(N)=O)C4)cnn2c1 (stereo partly drawn) [Example 333, N-((aR)-6-((3-carbamoylpyridin-2-yl)oxy)spiro[3.3]heptan-2-yl)-6-((S)-2-hydroxypropoxy)pyrazolo[1,5-a]pyridine-3-carboxamide]
IC50 (ROCK2): 5 to 50 nM

Cc1nc(C(=O)NC2CC3(C2)CC(Oc2ncccc2C(N)=O)C3)c(C)n1-c1ccccc1 (stereo not shown) [Example 392]
IC50 (ROCK2): 50 to 250 nM

COc1cccc(C(N)=O)c1OC1CC2(CC(NC(=O)c3cnn4cc(OCC(C)(C)O)ccc34)C2)C1 (stereo not shown) [Example 209, N-(6-(2-carbamoyl-6-methoxyphenoxy)spiro[3.3]heptan-2-yl)-6-(2-hydroxy-2-methylpropoxy)pyrazolo[1,5-a]pyridine-3-carboxamide]
IC50 (ROCK2): 250 to 2500 nM

NC(=O)c1ccccc1O[C@H]1CC2(C[C@H](NC(=O)c3cnn4ccc(OCCN5CCOCC5)cc34)C2)C1 (stereo partly drawn) [Example 20, N-[(aR)-6-(2-carbamoylphenoxy)spiro[3.3]heptan-2-yl]-5-[2-(morpholin-4-yl)ethoxy]pyrazolo[1,5-a]pyridine-3-carboxamide]
IC50 (ROCK2): 5 to 50 nM
